According to the OPERA property sets (Mansouri et al. 2018):

Conditions: not given
In the case of `O=C(O)c1c(Cl)cccc1Cl`, the melting point is reported as 144 °C and the ready biodegradability is reported as “not readily biodegradable”.
Molecule `CCCCCCCCCCCCCCCCCCCCCCCCCCCCC` has a boiling point of 441 °C, a log10 biodegradation half-life (days) of 2 and a log10 vapour pressure (mmHg) of -9.37. For the same molecule, the melting point was 63.7 °C and the ready biodegradability was “readily biodegradable”.
`CCCN.Cl` showed a melting point of 161 °C.
For `N#CCc1cccc([N+](=O)[O-])c1`, the melting point was 63 °C.
`O=C(Cl)OCCOCCOC(=O)Cl` gave a boiling point of 229 °C and a log10 vapour pressure (mmHg) of -2.83.
`Cc1cc2ccccc2nc1C` gave a boiling point of 263 °C and a melting point of 68.5 °C.
For `CC=Cc1cccc(OC)c1O`, the boiling point was 268 °C and the melting point was 81 °C.
`O=c1[nH]c(=O)n([C@H]2C[C@H](O)[C@@H](CO)O2)cc1F` showed a melting point of 150 °C.
`Clc1ccc2c(c1)C(N1CCNCC1)=Nc1ccccc1O2` showed a melting point of 176 °C.
Molecule `Cc1ccnc(C)n1` has a boiling point of 150 °C and a melting point of -4 °C.
Molecule `CC(C)COC(N)=O` has a boiling point of 207 °C and a melting point of 67 °C.
With `CC(=O)Nc1ccccc1-c1ccccc1` the boiling point was 355 °C and the melting point was 121 °C.
`ClC=C(Cl)C(Cl)=CCl` gave a boiling point of 188 °C and a melting point of -4 °C.
For `CCCCC(CC)COC(=O)C=CC(=O)OCC(CC)CCCC` (stereo not drawn), the ready biodegradability was “readily biodegradable”.
`C1=CCC1` gave a boiling point of 2 °C.
`O=C(O)Cc1ccc([N+](=O)[O-])cc1` showed a melting point of 154 °C.
`C=C(C)CC(C)=O` showed a boiling point of 124 °C, a log10 vapour pressure (mmHg) of 1.18 and a melting point of -72.6 °C.
Work on `CC(=O)O[C@H]1[C@H]2O[C@]23[C@@H]2CC[C@]4(O)C[C@@H](O)CC[C@]4(C)[C@H]2CC[C@]3(C)[C@H]1c1ccc(=O)oc1` yielded a melting point of 260 °C.
In the case of `ClC=C(Cl)CCl`, the boiling point is reported as 142 °C and the log10 vapour pressure (mmHg) is reported as 0.643.
With `c1ccc2[nH]nnc2c1` the boiling point was 350 °C, the log10 Koc (L/kg) was 1.69 and the melting point was 100 °C.
`Oc1cc(Cl)cc(Cl)c1` gave a boiling point of 233 °C, a log10 Koc (L/kg) of 2.83 and a log10 vapour pressure (mmHg) of -2.07. The melting point was 68 °C and the ready biodegradability was “not readily biodegradable”.
In the case of `CCOC(OCC)OCC`, the boiling point is reported as 143 °C and the log10 vapour pressure (mmHg) is reported as 0.587.
`NC(=O)N1c2ccccc2C=Cc2ccccc21` gave a melting point of 190 °C.
With `CC(=O)CC(C)C` the boiling point was 116 °C, the log10 vapour pressure (mmHg) was 1.3 and the melting point was -84 °C. The ready biodegradability was “readily biodegradable”.
In the case of `c1ccc2c(c1)oc1ccccc12`, the boiling point is reported as 287 °C, the log10 Koc (L/kg) is reported as 3.91 and the log10 vapour pressure (mmHg) is reported as -2.61. For the same molecule, the melting point was 86.5 °C and the ready biodegradability was “readily biodegradable”.
With `C=CC(C)(CCC=C(C)C)OC(C)=O` (stereo not drawn) the boiling point was 220 °C and the log10 vapour pressure (mmHg) was -0.955.
With `CCC(CC)COC(=O)CCCCC(=O)OCC(CC)CC` the melting point was -15 °C.
Work on `COC(=O)CC(O)(CC(=O)OC)C(=O)OC` yielded a boiling point of 285 °C and a melting point of 79.3 °C.
With `c1cc2ccc3cccc4ccc(c1)c2c34` the boiling point was 404 °C, the log10 Henry constant (atm·m³/mol) was -4.92 and the log10 Koa was 8.8. The log10 Koc (L/kg) was 4.9, the log10 biodegradation half-life (days) was 2.37 and the log10 vapour pressure (mmHg) was -5.35. For the same molecule, the melting point was 151 °C.
Molecule `FC(F)(F)c1ccc(C(F)(F)F)cc1` has a boiling point of 116 °C.
With `Brc1cc(Br)cc(Br)c1` the boiling point was 271 °C, the log10 vapour pressure (mmHg) was -2.82 and the melting point was 123 °C.
`COc1ccc(C(C)=O)c(OC)c1OC` showed a boiling point of 296 °C and a melting point of 15.8 °C.
With `c1ccc2c(c1)Oc1ccccc1O2` the log10 vapour pressure (mmHg) was -3.38 and the melting point was 122 °C.
With `C/C(=N/Nc1nc(C)cc(C)n1)c1ccccc1C` the log10 vapour pressure (mmHg) was -7.51 and the melting point was 176 °C.
In the case of `O=S(=O)(Cl)c1cccs1`, the melting point is reported as 28 °C.
Molecule `CC=C(Br)Br` has a boiling point of 125 °C.
`CCN(CC)CCCC(C)N` (stereo not drawn) showed a boiling point of 201 °C.
For `C/C=C/C(=O)OCC`, the boiling point was 137 °C.
In the case of `CC(C)(O)CCO`, the boiling point is reported as 202 °C.
For `CCCBr`, the boiling point was 71.1 °C, the log10 vapour pressure (mmHg) was 2.04 and the melting point was -110 °C.
For `O=C(O)CCCCCCCCCCCCCCCCCCC(=O)O`, the melting point was 126 °C.
For `CCOP(=S)(OCC)SCn1nnc2ccccc2c1=O`, the melting point was 53 °C.
For `CC(O)CBr` (stereo not drawn), the boiling point was 146 °C.
With `CCCC(Cn1cncn1)c1ccc(Cl)cc1Cl` (stereo not drawn) the log10 vapour pressure (mmHg) was -5.56 and the melting point was 58.5 °C.
With `CC(=O)Oc1ccccc1C(=O)O` the log10 vapour pressure (mmHg) was -4.6, the melting point was 135 °C and the ready biodegradability was “readily biodegradable”.
In the case of `CNC(=O)Oc1ccc(N(C)C)c(C)c1`, the log10 Koc (L/kg) is reported as 2, the melting point is reported as 93.5 °C and the ready biodegradability is reported as “readily biodegradable”.
Work on `OCCc1ccc2ccccc2n1` yielded a melting point of 103 °C.
In the case of `CC(CN1c2ccccc2Sc2ccccc21)N(C)C` (stereo not drawn), the melting point is reported as 60 °C.
Work on `Cc1nn(C)c(Oc2ccccc2)c1C=NOCc1ccc(C(=O)OC(C)(C)C)cc1` yielded a melting point of 102 °C.
`O=C(O)c1cc(-c2ccccc2)nc2ccccc12` gave a melting point of 214 °C.
`C[C@@H]1C[C@H]2[C@@H]3C[C@H](F)C4=CC(=O)C=C[C@]4(C)[C@H]3[C@@H](O)C[C@]2(C)[C@H]1C(=O)CO` showed a melting point of 188 °C.
With `Cc1ccc(O)cc1C` the ready biodegradability was “readily biodegradable”.
For `COc1ccc(C(C)(C)C)cc1`, the boiling point was 238 °C.
Molecule `CCCCCCCCCCC=O` has a melting point of -4 °C.
In the case of `N#Cc1nc(C#N)nc(C#N)n1`, the boiling point is reported as 262 °C and the melting point is reported as 119 °C.
`NCCCN1CCOCC1` showed a boiling point of 220 °C and a melting point of -15 °C.
`OCCCCCCCCCCF` gave a melting point of 22 °C.
With `O=C(S)c1ccccc1` the melting point was 24 °C.
Work on `CC(=O)Nc1cccc(C(F)(F)F)c1` yielded a log10 Koc (L/kg) of 1.75 and a melting point of 104 °C.
In the case of `FC(F)(F)C(F)(Cl)C(Cl)(Cl)C(F)(F)F` (stereo not drawn), the boiling point is reported as 98 °C and the melting point is reported as 4 °C.
`Oc1c(Cl)c(O)c(Cl)c(O)c1Cl` gave a melting point of 136 °C.
In the case of `CCOC(=O)CCc1ccccc1`, the boiling point is reported as 247 °C.
With `C#CC1(O)CCCC1` the boiling point was 158 °C and the melting point was 27 °C.
For `FCCCCl`, the boiling point was 80 °C.
With `CC(O)CC(C)O` (stereo not drawn) the boiling point was 199 °C and the ready biodegradability was “readily biodegradable”.
Molecule `NS(=O)(=O)c1ccc(CCCO)cc1` has a melting point of 95.5 °C.
Work on `CNN` yielded a boiling point of 87.5 °C, a log10 vapour pressure (mmHg) of 1.7 and a melting point of -52.4 °C. The ready biodegradability was “not readily biodegradable”.
With `C=CCC(O)CC=C` the boiling point was 151 °C.
For `CN1CCN(C2=Nc3ccccc3Oc3ccc(Cl)cc32)CC1`, the melting point was 110 °C.
`CCCCC(C(=O)OCC)C(=O)OCC` gave a boiling point of 238 °C.
For `C=CCCCCCCCCCCCCCCCCCCCCC(=O)O`, the ready biodegradability was “readily biodegradable”.
In the case of `CC1=C(/C=C/C(C)=C/C=C/C(C)=C/C=C/C=C(C)/C=C/C=C(C)/C=C/C2=C(C)C[C@@H](O)CC2(C)C)C(C)(C)C[C@H](O)C1`, the melting point is reported as 216 °C.
Molecule `Cc1ccc([N+](=O)[O-])c2ccccc12` has a melting point of 71.5 °C.
Work on `COc1c2ccoc2cc2oc(C)cc(=O)c12` yielded a melting point of 144 °C.
`Brc1ccc(I)cc1` gave a boiling point of 252 °C and a melting point of 92 °C.
`CCCCC=CC=O` showed a boiling point of 166 °C.
`CCCCCCCCCCCCCCCCCCCCO` gave a boiling point of 372 °C, a log10 Koa of 12.1 and a log10 vapour pressure (mmHg) of -7.34. It also gave a melting point of 66.1 °C.
`O=C1OC(=O)c2cc(Cl)c(Cl)cc21` gave a boiling point of 313 °C and a melting point of 188 °C.
`COc1ccc2c(=O)c(C)c(-c3ccccc3)oc2c1CN(C)C` showed a melting point of 110 °C.
Molecule `O=Cc1ccnc2ccccc12` has a melting point of 51 °C.
`Nc1cccc(F)c1` showed a boiling point of 188 °C and a melting point of -5 °C.
Molecule `CC(=O)CC(C)(C)C` has a boiling point of 126 °C and a melting point of -64 °C.
With `COc1ccc2c(c1OC)CN(C)CCc1cc3c(cc1C(=O)C2)OCO3` the melting point was 160 °C.
In the case of `C=C(C)C(=O)OCC1CO1` (stereo not drawn), the ready biodegradability is reported as “readily biodegradable”.
Work on `COc1ccc(C=O)c(C(=O)O)c1OC` yielded a melting point of 150 °C.
Molecule `CC1CCCC(C)(C)C1=O` (stereo not drawn) has a boiling point of 178 °C and a melting point of -31.8 °C.
Work on `CC(=O)c1ccccc1` yielded a boiling point of 202 °C, a log10 Henry constant (atm·m³/mol) of -4.98 and a log10 Koc (L/kg) of 1.8. The log10 vapour pressure (mmHg) was -0.401, the melting point was 20 °C and the ready biodegradability was “readily biodegradable”.
`CCCCOCCOC(=O)CCCOc1ccc(Cl)cc1Cl` showed a log10 Koc (L/kg) of 2.7.
For `Cc1cc2ncn(C3OC(CO)C(O)C3O)c2cc1C` (stereo not drawn), the melting point was 198 °C.
Molecule `CC(C)CCOC(=O)OCCC(C)C` has a boiling point of 234 °C.
`CN=C=O` gave a boiling point of 39.5 °C, a log10 vapour pressure (mmHg) of 2.54 and a melting point of -45 °C.
`c1ccc(CNc2[nH]cnc3ncnc2-3)cc1` showed a log10 vapour pressure (mmHg) of -10.7 and a melting point of 233 °C.
For `CCN=Cc1ccccc1`, the boiling point was 196 °C.
For `c1ccc(COP(OCc2ccccc2)OCc2ccccc2)cc1`, the ready biodegradability was “readily biodegradable”.
In the case of `C=C1COC2(OCCCO2)OC1`, the ready biodegradability is reported as “not readily biodegradable”.
Work on `CCC(C)(CC)C(C)(C)C` yielded a boiling point of 170 °C and a melting point of -42.5 °C.
Work on `CCOP(=S)(OCC)Oc1nc(Cl)c(Cl)cc1Cl` yielded a log10 Henry constant (atm·m³/mol) of -5.53, a log10 Koc (L/kg) of 3.7 and a log10 vapour pressure (mmHg) of -4.69. The melting point was 42 °C and the ready biodegradability was “not readily biodegradable”.
For `C[C@@H](N)[C@@H](O)c1ccccc1`, the melting point was 101 °C.
Molecule `CC(C)[N+](C)(CCOC(=O)C1c2ccccc2Oc2ccccc21)C(C)C.[Br-]` has a melting point of 160 °C.

Same assay, conditions: […]
Molecule `C=C/C(C)=C\CC=C(C)C` has a log10 OH rate constant (cm³/molecule/s) of -9.6.

Same assay, conditions: fish
Work on `O=C(O)c1c(Cl)cccc1Cl` yielded a log10 BCF of 0.26.
Molecule `C=C(CCCC)CCCCCCCC` has a log10 biotransformation half-life (days) of 0.88.
`Brc1ccc(Oc2ccc(Br)c(Br)c2)cc1Br` showed a log10 BCF of 6.29.
`Oc1cc(Cl)cc(Cl)c1` gave a log10 BCF of 1.91 and a log10 biotransformation half-life (days) of -0.91.
Molecule `c1ccc2c(c1)oc1ccccc12` has a log10 BCF of 3.18 and a log10 biotransformation half-life (days) of 1.35.
For `c1cc2ccc3cccc4ccc(c1)c2c34`, the log10 BCF was 3.18 and the log10 biotransformation half-life (days) was 0.32.
`Brc1cc(Br)cc(Br)c1` showed a log10 BCF of 3.7 and a log10 biotransformation half-life (days) of 1.65.
Work on `CCCC(Cn1cncn1)c1ccc(Cl)cc1Cl` (stereo not drawn) yielded a log10 biotransformation half-life (days) of 1.19.
For `CCOP(=S)(OCC)Oc1nc(Cl)c(Cl)cc1Cl`, the log10 BCF was 3.18 and the log10 biotransformation half-life (days) was 0.77.
